Results reported in US6376526B1, “Triazole antifungal agents” (Pfizer Inc., priority 1996, dated 2002).

Columns and labels:
Candida albicans = assay: in vivo activity against acute systemic candidosis in immune-normal mice; conditions: dose protecting 50% of mice on day 2 post-infection; mice infected i.v. with Candida albicans; oral dosing 1, 4 and 24 hours post-infection
Excerpt: The in vivo evaluation of the compounds can be carried out at a series of dose levels by intraperitoneal or intravenous injection, or by oral administration, to mice or rats which are inoculated with, e.g. a strain of Candida albicans, Aspergillus fumigatus or Cryptococcus neoformans. Activity may be based on the number of survivors from a treated group of mice after the death of an untreated group of mice.
For Candida spp. infection models the dose level at which the compound provides 50% protection against the lethal effect of the infection (PD50) is also assessed.
The Table below illustrates the in vivo activity against acute systemic candidosis in immune-normal mice for a selection of the compounds of the invention.
Mice were infected intravenously with Candida albicans in order to establish a systemic infection (all untreated control mice died by 2 days post-infection). Compound efficacy was assessed on the basis of survival after oral dosing (0.1-5 mg/kg; 1, 4 and 24 hours post-infection) and was measured as the dose protecting 50% of mice on day 2 post-infection.

[1] = 7-day toxicity study in rats; type: in vivo; conditions: 30 mg/kg p.o., o.d., 7 days

Row | Compound | PD50 (Candida albicans) [mg/kg] | adverse effects in 7-day toxicity study [1]
1 | C[C@@H](c1ccc(/C=C/c2c[nH]nn2)cn1)[C@](O)(Cn1cncn1)c1ccc(F)cc1F (relative stereo) [Example 10, Trans-(2R,3S/2S,3R)-1-(1,2,4-triazol-1-yl)-2-(2,4-difluorophenyl)-3-{5-[2-(1,2,3-triazol-4-yl)ethenyl]pyrid-2-yl}butan-2-ol] | 0.32 | 
2 | C[C@@H](c1ccc(/C=C/C(C)(C)O)cn1)[C@](O)(Cn1cncn1)c1ccc(F)cc1F (relative stereo) [Example 9, Trans-(2R,3S/2S,3R)-1-(1,2,4-triazol-1-yl)-2-(2,4-difluorophenyl)-3-[5-{3-hydroxy-3-methylbut-1-en-1-yl}pyrid-2-yl]butan-2-ol] | 0.18 | 
3 | C[C@@H](c1ccc(/C=C/c2ccnn2C)cc1)[C@](O)(Cn1cncn1)c1ccc(F)cc1F [Example 1, Trans-(2R,3S)-1-(1,2,4-triazol-1-yl)-2-(2,4-difluorophenyl)-3-{4-[2-(1methylpyrazol-5-yl)ethenyl]phenyl}butan-2-ol] | <0.10 | no adverse effects
4 | C[C@@H](c1ccc(/C=C/n2ccnc2)cc1)[C@](O)(Cn1cncn1)c1ccc(F)cc1F (relative stereo) [Example 5, Trans-(2R,3S/2S,3R)-1-(1,2,4-triazol-1-yl)-2-(2,4-difluorophenyl)-3-{4-[2-(imidazol-1-yl)ethenyl]phenyl}butan-2-ol] | 0.18 | 
